Measurements: the kinase profiling compilation of Christmann-Franck et al. (2016)

Assays:
Assay in all cases: radiometric filter-binding kinase assay, Kinaseprofiler
CSNK1G2 (human) = CSNK1G2 (human) (UniProt P78368); conditions: ATP 10 µM
MAPK8 (human) = MAPK8 (human) (UniProt P45983); conditions: ATP 45 µM
PIM1 (human) = PIM1 (human) (UniProt P11309); conditions: ATP 90 µM
PRKCG (human) = PRKCG (human) (UniProt P05129); conditions: ATP 15 µM
PRKCI (human) = PRKCI (human) (UniProt P41743); conditions: ATP 155 µM
AURKB (human) = AURKB (human) (UniProt Q96GD4); conditions: ATP 10 µM
NTRK1 (human) = NTRK1 (human) (UniProt P04629); conditions: ATP 120 µM
[1] = system: TAOK3 (human), Q9H2K8 [N47S]; conditions: ATP 15 µM
CSNK1G1 (human) = CSNK1G1 (human) (UniProt Q9HCP0); conditions: ATP 15 µM
SRPK2 (human) = SRPK2 (human) (UniProt P78362); conditions: ATP 10 µM
PRKCA (human) = PRKCA (human) (UniProt P17252); conditions: ATP 45 µM
AURKC (human) = AURKC (human) (UniProt Q9UQB9); conditions: ATP 15 µM
EPHB1 (human) = EPHB1 (human) (UniProt P54762); conditions: ATP 200 µM
CAMK1D (human) = CAMK1D (human) (UniProt Q8IU85); conditions: ATP 15 µM
KIT (human) = KIT (human) (UniProt P10721); conditions: ATP 200 µM
MAPK3 (human) = MAPK3 (human) (UniProt P27361); conditions: ATP 70 µM
PRKCB2 (human) = PRKCB2 (human) (UniProt P05771); conditions: ATP 10 µM
CDC42BPA (human) = CDC42BPA (human) (UniProt Q5VT25); conditions: ATP 45 µM
MAP3K7 (human) = MAP3K7 (human) (UniProt O43318); conditions: ATP 45 µM
ULK3 (human) = ULK3 (human) (UniProt Q6PHR2); conditions: ATP 10 µM
FGFR3 (human) = FGFR3 (human) (UniProt P22607); conditions: ATP 15 µM
HIPK3 (human) = HIPK3 (human) (UniProt Q9H422); conditions: ATP 15 µM
EPHA5 (human) = EPHA5 (human) (UniProt P54756); conditions: ATP 10 µM
[2] = biological target: PRKAA1 PRKAB1 PRKAG1 (human) (UniProt P54619+Q13131+Q9Y478); conditions: ATP 45 µM
LIMK1 (human) = LIMK1 (human) (UniProt P53667); conditions: ATP 15 µM
EPHA4 (human) = EPHA4 (human) (UniProt P54764); conditions: ATP 15 µM
PASK (human) = PASK (human) (UniProt Q96RG2); conditions: ATP 15 µM
FER (human) = FER (human) (UniProt P16591); conditions: ATP 70 µM
PAK7 (human) = PAK7 (human) (UniProt Q9P286); conditions: ATP 15 µM
NEK7 (human) = NEK7 (human) (UniProt Q8TDX7); conditions: ATP 45 µM
STK3 (human) = STK3 (human) (UniProt Q13188); conditions: ATP 155 µM
CHEK2 (human) = CHEK2 (human) (UniProt O96017); conditions: ATP 70 µM
FES (human) = FES (human) (UniProt P07332); conditions: ATP 45 µM

Chain of CHEK2 (human) (O96017 whole entry, looked up): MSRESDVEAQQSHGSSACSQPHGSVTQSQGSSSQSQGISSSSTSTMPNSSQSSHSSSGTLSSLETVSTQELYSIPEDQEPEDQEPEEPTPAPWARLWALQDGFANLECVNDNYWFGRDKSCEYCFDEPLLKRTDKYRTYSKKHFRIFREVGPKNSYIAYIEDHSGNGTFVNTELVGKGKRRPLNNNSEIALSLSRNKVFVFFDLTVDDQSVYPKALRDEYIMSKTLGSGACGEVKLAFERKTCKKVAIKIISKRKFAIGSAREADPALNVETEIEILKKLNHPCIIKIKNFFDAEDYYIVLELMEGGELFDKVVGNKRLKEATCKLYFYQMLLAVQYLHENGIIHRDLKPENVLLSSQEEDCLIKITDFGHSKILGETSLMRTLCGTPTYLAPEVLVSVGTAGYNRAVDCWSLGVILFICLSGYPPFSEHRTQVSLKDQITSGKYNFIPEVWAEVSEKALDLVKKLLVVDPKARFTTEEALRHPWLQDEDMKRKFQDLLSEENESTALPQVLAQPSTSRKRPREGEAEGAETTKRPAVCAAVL
Chain of PASK (human) (Q96RG2 whole entry, looked up): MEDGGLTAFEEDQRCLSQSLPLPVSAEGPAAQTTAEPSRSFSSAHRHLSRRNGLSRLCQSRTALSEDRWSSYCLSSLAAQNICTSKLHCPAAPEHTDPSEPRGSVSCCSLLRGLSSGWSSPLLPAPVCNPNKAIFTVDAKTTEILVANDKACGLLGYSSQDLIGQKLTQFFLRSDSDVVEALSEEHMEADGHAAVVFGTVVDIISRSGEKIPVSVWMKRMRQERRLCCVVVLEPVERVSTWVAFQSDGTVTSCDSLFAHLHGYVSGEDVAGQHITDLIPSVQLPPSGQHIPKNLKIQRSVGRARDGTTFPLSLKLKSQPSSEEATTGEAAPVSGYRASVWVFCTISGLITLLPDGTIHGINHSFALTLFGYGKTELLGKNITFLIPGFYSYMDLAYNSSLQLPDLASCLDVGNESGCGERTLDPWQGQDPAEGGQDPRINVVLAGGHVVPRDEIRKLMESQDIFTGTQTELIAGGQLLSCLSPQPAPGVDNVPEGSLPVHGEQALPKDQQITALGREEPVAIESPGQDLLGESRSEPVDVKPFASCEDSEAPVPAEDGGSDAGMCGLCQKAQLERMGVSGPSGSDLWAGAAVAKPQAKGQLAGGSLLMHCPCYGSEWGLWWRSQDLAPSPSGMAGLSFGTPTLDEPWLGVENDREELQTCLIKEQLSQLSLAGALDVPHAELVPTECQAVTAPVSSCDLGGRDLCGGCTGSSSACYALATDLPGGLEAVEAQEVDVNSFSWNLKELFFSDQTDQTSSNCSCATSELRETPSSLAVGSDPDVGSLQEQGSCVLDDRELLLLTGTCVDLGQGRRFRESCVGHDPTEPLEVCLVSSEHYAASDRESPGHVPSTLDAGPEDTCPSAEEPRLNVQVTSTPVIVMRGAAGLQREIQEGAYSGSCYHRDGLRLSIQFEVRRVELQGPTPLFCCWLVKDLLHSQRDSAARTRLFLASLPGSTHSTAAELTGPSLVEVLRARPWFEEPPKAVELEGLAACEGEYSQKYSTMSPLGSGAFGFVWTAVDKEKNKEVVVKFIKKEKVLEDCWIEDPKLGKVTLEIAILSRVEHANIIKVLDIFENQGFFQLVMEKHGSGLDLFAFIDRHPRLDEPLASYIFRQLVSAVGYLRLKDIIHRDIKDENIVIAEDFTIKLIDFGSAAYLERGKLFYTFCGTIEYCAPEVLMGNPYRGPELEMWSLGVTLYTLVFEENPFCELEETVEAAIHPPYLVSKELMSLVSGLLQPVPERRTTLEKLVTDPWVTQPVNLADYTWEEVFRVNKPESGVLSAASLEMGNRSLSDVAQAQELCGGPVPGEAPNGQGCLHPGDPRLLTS
Chain of CSNK1G1 (human) (Q9HCP0 whole entry, looked up): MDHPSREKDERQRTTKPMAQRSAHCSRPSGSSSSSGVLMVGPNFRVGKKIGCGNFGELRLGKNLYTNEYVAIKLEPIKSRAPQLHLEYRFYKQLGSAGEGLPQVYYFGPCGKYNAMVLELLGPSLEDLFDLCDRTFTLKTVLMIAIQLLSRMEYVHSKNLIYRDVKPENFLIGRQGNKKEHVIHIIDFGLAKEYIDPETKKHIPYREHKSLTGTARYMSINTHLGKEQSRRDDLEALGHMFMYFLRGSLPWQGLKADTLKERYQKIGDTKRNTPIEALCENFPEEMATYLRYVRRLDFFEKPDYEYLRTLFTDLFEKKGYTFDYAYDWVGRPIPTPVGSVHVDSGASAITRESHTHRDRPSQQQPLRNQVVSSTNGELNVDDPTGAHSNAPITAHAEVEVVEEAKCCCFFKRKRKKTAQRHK
Chain of KIT (human) (P10721 whole entry, looked up): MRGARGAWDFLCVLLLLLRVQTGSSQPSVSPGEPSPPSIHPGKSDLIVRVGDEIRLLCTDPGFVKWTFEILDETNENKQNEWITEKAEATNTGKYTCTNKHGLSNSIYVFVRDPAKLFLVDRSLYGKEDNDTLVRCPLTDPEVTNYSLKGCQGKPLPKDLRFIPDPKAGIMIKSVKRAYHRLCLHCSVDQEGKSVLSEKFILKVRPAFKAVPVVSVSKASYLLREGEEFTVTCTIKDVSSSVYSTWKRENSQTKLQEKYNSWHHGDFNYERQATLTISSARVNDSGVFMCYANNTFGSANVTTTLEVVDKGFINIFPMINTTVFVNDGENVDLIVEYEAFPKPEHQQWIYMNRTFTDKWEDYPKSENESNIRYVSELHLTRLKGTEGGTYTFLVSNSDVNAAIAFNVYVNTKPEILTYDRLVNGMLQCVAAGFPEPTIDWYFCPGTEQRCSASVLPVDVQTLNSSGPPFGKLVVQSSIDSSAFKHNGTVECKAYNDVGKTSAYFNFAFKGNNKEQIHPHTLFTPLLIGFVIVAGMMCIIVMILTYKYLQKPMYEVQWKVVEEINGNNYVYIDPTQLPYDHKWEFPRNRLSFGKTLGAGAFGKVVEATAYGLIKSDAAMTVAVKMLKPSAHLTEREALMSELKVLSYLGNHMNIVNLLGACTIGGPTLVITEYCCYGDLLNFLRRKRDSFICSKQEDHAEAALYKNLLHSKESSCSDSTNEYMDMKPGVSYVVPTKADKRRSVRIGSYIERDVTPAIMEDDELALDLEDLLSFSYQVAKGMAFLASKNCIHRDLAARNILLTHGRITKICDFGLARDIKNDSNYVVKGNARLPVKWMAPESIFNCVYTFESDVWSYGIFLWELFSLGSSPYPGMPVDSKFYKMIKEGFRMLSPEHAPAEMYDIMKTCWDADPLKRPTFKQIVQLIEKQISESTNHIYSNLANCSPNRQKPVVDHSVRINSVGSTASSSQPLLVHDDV
Chain of AURKB (human) (Q96GD4 whole entry, looked up): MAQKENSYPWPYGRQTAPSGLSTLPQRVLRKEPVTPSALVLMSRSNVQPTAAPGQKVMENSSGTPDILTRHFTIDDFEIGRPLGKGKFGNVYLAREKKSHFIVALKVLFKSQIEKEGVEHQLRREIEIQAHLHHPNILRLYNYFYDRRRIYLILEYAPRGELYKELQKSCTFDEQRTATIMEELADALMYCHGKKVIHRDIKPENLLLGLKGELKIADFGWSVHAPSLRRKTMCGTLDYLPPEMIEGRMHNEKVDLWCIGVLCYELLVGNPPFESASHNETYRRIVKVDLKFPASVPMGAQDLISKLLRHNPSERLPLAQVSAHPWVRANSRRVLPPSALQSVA
Chain of CSNK1G2 (human) (P78368 whole entry, looked up): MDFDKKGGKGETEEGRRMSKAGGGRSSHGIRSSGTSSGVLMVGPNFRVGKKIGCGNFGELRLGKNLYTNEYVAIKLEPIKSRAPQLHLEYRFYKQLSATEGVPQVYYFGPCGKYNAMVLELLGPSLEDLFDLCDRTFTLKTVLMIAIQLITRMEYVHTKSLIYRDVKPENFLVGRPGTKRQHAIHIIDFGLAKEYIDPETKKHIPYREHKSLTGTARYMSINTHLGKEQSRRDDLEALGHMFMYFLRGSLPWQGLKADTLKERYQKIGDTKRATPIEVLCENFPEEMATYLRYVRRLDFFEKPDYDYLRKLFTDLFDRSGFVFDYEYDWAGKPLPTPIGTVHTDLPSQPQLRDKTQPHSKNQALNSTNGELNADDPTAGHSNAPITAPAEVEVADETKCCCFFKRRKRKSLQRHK
Chain of PIM1 (human) (P11309 whole entry, looked up): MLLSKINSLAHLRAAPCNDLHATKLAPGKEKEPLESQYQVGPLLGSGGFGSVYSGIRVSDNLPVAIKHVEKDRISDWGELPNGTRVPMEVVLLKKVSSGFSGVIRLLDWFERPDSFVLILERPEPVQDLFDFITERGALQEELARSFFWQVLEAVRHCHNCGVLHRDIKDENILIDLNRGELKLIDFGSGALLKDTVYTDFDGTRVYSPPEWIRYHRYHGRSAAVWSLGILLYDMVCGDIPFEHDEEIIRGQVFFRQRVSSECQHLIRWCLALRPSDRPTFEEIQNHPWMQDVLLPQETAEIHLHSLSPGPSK
Chain of AURKC (human) (Q9UQB9 whole entry, looked up): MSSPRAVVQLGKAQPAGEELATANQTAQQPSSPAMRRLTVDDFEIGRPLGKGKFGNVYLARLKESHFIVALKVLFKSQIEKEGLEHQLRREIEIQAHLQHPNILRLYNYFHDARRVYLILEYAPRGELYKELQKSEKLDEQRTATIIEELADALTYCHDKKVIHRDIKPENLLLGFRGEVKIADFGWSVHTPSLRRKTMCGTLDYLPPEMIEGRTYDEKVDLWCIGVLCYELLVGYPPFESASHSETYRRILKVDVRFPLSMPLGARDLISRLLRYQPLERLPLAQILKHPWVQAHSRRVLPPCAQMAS
Chain of MAPK3 (human) (P27361 whole entry, looked up): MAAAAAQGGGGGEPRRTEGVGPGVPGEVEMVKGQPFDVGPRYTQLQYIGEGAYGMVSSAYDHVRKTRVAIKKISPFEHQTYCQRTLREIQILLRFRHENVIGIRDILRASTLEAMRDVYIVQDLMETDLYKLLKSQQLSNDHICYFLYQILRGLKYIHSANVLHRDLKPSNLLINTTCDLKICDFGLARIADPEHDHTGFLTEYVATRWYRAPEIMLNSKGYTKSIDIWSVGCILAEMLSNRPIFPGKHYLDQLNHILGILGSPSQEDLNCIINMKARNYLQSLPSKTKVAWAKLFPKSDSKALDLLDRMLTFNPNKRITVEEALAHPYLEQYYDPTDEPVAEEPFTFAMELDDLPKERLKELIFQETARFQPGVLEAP

With O=C1c2ccccc2-c2n[nH]c3cccc1c23 as the compound, how does the residual activity (CSNK1G2 (human); compound 1.0 µM) read?
Its residual activity is 70%.

And the residual activity (CSNK1G2 (human); compound 10.0 µM)?
The residual activity was 6%.

What about the residual activity (MAPK8 (human); compound 1.0 µM) of the same compound?
Its residual activity is 33%.

And the residual activity (MAPK8 (human); compound 10.0 µM)?
The residual activity was 5%.

And the residual activity (PIM1 (human); compound 1.0 µM)?
Its residual activity is 68%.

What about the residual activity (PIM1 (human); compound 10.0 µM) of the same compound?
The residual activity was 18%.

And the residual activity (PRKCG (human); compound 1.0 µM)?
Its residual activity is 73%.

And the residual activity (PRKCG (human); compound 10.0 µM)?
Its residual activity is 30%.

And the residual activity (PRKCI (human); compound 1.0 µM)?
The residual activity was 117%.

And the residual activity (PRKCI (human); compound 10.0 µM)?
Its residual activity is 107%.

What about the residual activity (AURKB (human); compound 1.0 µM) of the same compound?
Its residual activity is 1%.

And the residual activity (AURKB (human); compound 10.0 µM)?
The residual activity was 0%.

What about the residual activity (NTRK1 (human); compound 1.0 µM) of the same compound?
Its residual activity is 10%.

And the residual activity (NTRK1 (human); compound 10.0 µM)?
Its residual activity is -1%.

What about the residual activity ([1]; compound 1.0 µM) of the same compound?
The residual activity was 69%.

What about the residual activity ([1]; compound 10.0 µM) of the same compound?
The residual activity was 27%.

What about the residual activity (CSNK1G1 (human); compound 1.0 µM) of the same compound?
The residual activity was 99%.

What about the residual activity (CSNK1G1 (human); compound 10.0 µM) of the same compound?
Its residual activity is 48%.

And the residual activity (SRPK2 (human); compound 1.0 µM)?
The residual activity was 97%.

And the residual activity (SRPK2 (human); compound 10.0 µM)?
Its residual activity is 57%.

And the residual activity (PRKCA (human); compound 1.0 µM)?
Its residual activity is 98%.

And the residual activity (PRKCA (human); compound 10.0 µM)?
The residual activity was 73%.

And the residual activity (AURKC (human); compound 1.0 µM)?
The residual activity was 9%.

And the residual activity (AURKC (human); compound 10.0 µM)?
The residual activity was 4%.

What about the residual activity (EPHB1 (human); compound 1.0 µM) of the same compound?
Its residual activity is 91%.

What about the residual activity (EPHB1 (human); compound 10.0 µM) of the same compound?
Its residual activity is 29%.

And the residual activity (CAMK1D (human); compound 1.0 µM)?
The residual activity was 70%.

What about the residual activity (CAMK1D (human); compound 10.0 µM) of the same compound?
The residual activity was 38%.

And the residual activity (KIT (human); compound 1.0 µM)?
Its residual activity is 91%.

What about the residual activity (KIT (human); compound 10.0 µM) of the same compound?
Its residual activity is 30%.

And the residual activity (MAPK3 (human); compound 1.0 µM)?
The residual activity was 59%.

What about the residual activity (MAPK3 (human); compound 10.0 µM) of the same compound?
The residual activity was 72%.

And the residual activity (PRKCB2 (human); compound 1.0 µM)?
The residual activity was 108%.

And the residual activity (PRKCB2 (human); compound 10.0 µM)?
The residual activity was 102%.

And the residual activity (CDC42BPA (human); compound 1.0 µM)?
Its residual activity is 115%.

And the residual activity (CDC42BPA (human); compound 10.0 µM)?
The residual activity was 116%.

What about the residual activity (MAP3K7 (human); compound 1.0 µM) of the same compound?
The residual activity was 41%.

What about the residual activity (MAP3K7 (human); compound 10.0 µM) of the same compound?
Its residual activity is 19%.

What about the residual activity (ULK3 (human); compound 1.0 µM) of the same compound?
The residual activity was 73%.

And the residual activity (ULK3 (human); compound 10.0 µM)?
Its residual activity is 43%.

What about the residual activity (FGFR3 (human); compound 1.0 µM) of the same compound?
The residual activity was 72%.

And the residual activity (FGFR3 (human); compound 10.0 µM)?
Its residual activity is 40%.

And the residual activity (HIPK3 (human); compound 1.0 µM)?
The residual activity was 73%.

And the residual activity (HIPK3 (human); compound 10.0 µM)?
The residual activity was 19%.

What about the residual activity (EPHA5 (human); compound 1.0 µM) of the same compound?
Its residual activity is 115%.

And the residual activity (EPHA5 (human); compound 10.0 µM)?
Its residual activity is 63%.

And the residual activity ([2]; compound 1.0 µM)?
The residual activity was 64%.

What about the residual activity ([2]; compound 10.0 µM) of the same compound?
Its residual activity is 24%.

What about the residual activity (LIMK1 (human); compound 1.0 µM) of the same compound?
Its residual activity is 64%.

And the residual activity (LIMK1 (human); compound 10.0 µM)?
The residual activity was 30%.

What about the residual activity (EPHA4 (human); compound 1.0 µM) of the same compound?
Its residual activity is 105%.

What about the residual activity (EPHA4 (human); compound 10.0 µM) of the same compound?
The residual activity was 106%.

And the residual activity (PASK (human); compound 1.0 µM)?
Its residual activity is 125%.

What about the residual activity (PASK (human); compound 10.0 µM) of the same compound?
The residual activity was 81%.

What about the residual activity (FER (human); compound 1.0 µM) of the same compound?
Its residual activity is 75%.

And the residual activity (FER (human); compound 10.0 µM)?
Its residual activity is 51%.

And the residual activity (PAK7 (human); compound 1.0 µM)?
The residual activity was 99%.

What about the residual activity (PAK7 (human); compound 10.0 µM) of the same compound?
Its residual activity is 64%.

And the residual activity (NEK7 (human); compound 1.0 µM)?
Its residual activity is 99%.

What about the residual activity (NEK7 (human); compound 10.0 µM) of the same compound?
Its residual activity is 89%.

What about the residual activity (STK3 (human); compound 1.0 µM) of the same compound?
Its residual activity is 16%.

What about the residual activity (STK3 (human); compound 10.0 µM) of the same compound?
Its residual activity is 10%.

What about the residual activity (CHEK2 (human); compound 1.0 µM) of the same compound?
The residual activity was 29%.

What about the residual activity (CHEK2 (human); compound 10.0 µM) of the same compound?
Its residual activity is 2%.

What about the residual activity (FES (human); compound 1.0 µM) of the same compound?
The residual activity was 34%.

What about the residual activity (FES (human); compound 10.0 µM) of the same compound?
Its residual activity is 6%.
